Test results: US11505560B2, “Heterobifunctional compounds with improved specificity” (DANA-FARBER CANCER INSTITUTE, INC., priority 2017, dated 2022)
Entries after “also recorded” stand apart in the source; their conditions may differ.

Columns and labels:
[1] = tested on: BRD2BD1, BRD2BD2, BRD3BD1, BRD3BD2, BRD4BD1, BRD4BD2 GFP constructs; test: Cellular imaging-based degradation assay (bromodomain-GFP with mCherry reporter); format: cell-based, human
Description: Cells stably expressing bromodomain-GFP with mCherry reporter were seeded at 30-50% confluency in 384 well plates (3764, Corning) with 50 μL FluoroBrite DMEM media (Gibco, A18967) containing 10% FBS per well a day before compound treatment. Compounds (see Figure legends) were dispensed using D300e Digital Dispenser (HP) normalized to 0.5% DMSO and incubated with cells for 5 h. The assay plate was imaged immediately using Acumen eX3/HCl (TTPLabtech) High Content Imager with 488 nm and 561 nm lasers in 2 μm×1 μm grid per well format. The resulting images were analyzed using CellProfiler™ (Carpenter, et al., GenomeBiology 7:r100 (2006)). A series of image analysis steps (‘image analysis pipeline’) was constructed.
The CellProfiler™ pipeline steps are briefly outlined here. First, the red and green channels were aligned and cropped to target the middle of each well (to avoid analysis of heavily clumped cells at the edges), and a background illumination function was calculated for both red and green channels of each well individually and subtracted to correct for illumination variations across the 384-well plate from various sources of error. An additional step was then applied to the green channel to suppress the analysis of large auto fluorescent artifacts and enhance the analysis of cell specific fluorescence by way of selecting for objects under a given size, 30 A.U., and with a given shape, speckles. mCherry-positive cells were then identified in the red channel filtering for objects between 8-60 pixels in diameter and using intensity to distinguish between clumped objects. The green channel was then segmented into GFP positive and negative areas and objects were labeled as GFP positive if at least 40% of it overlapped with a GFP positive area. The fraction of GFP-positive cells/mCherry-positive cells (GFP/mCherry ratio) in each well was then calculated, and the green and red images were rescaled for visualization. The GFP/mCherry ratio was normalized to DMSO and analyzed in GraphPad Prism 7.

[2] = tested on: BRD2BD1, BRD2BD2, BRD3BD1, BRD3BD2, BRD4BD1, BRD4BD2 EGFP constructs; test: EGFP/mCherry reporter assay on individual BET bromodomains (flow cytometry); format: cell-based, human; conditions: for selectivity of degradation across BET bromodomains (in words): BRD2/3/4 BD1 and BD2
Description: (§1) IKZF1A, BRD2BD1, BRD2BD2, BRD3BD1, BRD3BD2, BRD4BD1, and BRD4BD2 were subcloned into mammalian pcDNA5/FRT Vector (Ampicillin and Hygromycin B resistant) modified to contain MCS-eGFP-P2A-mCherry. […] Following 2-3 passage cycle FACS (FACSAria II, BD) was used to enrich for cells expressing eGFP and mCherry.
(§2) Signal from 5000 cells per well was acquired in singlicate or duplicate and the eGFP and mCherry florescence monitored. Data was analyzed using FlowJo (FlowJo, LCC). […] The eGFP protein abundance relative to mCherry was then quantified as a ten-fold amplified ratio for each individual cell using the formula: 10×eGFP/mCherry. The median of the ratio was then calculated per set, normalized to the median of the DMSO ratio, and is denoted as relative abundance. Standard deviation is calculated from four replicates (n=4) unless described otherwise.

[3] = target: T1, IKZF1Δ-CRBN complex formation (Homo sapiens, UniProt Q13422+Q96SW2, DEL197-239); test: CRBN-IKZF1Δ binding assay (TR-FRET); conditions: IKZF1Δ and DDB1ΔB-CRBN
T1 construct: made in house; host or cells: Trichoplusia ni High-Five insect cells (baculovirus)
Description: Compounds in CRBN mutants dimerization assay were dispensed as described above into 200 nM His6-DDB1-His6-CRBNmutants or 200 nM His6-DDB1ΔB-His6-CRBNWT, 100 nM BRD4BD1-BODIPY-SpyCatcher and 2 nM terbium-anti-HIS Ab (Invitrogen) in a buffer containing 50 mM Tris pH 7.5, 100 mM NaCl, 0.1% Pluronic F-68 solution (Sigma) and 2% DMSO (4% DMSO final). Before TR-FRET measurements were conducted, the reactions were incubated for 15 min at RT. […] The TR-FRET signal of each data point was extracted by calculating the 520/490 nm ratio. […] The peak height of TR-FRET dBET dose response data was calculated in GraphPad Prism 7 using Area Under Curve analysis for three independent replicates (n=3) and the mean peak height and standard deviation calculated.
The standard deviation in IKZF1A TR-FRET compound titrations was calculated from three biological replicates (n=3) as an average of 5 technical replicates per well per experiment, or as an average of 5 technical replicates of single experiment for unlabelled protein titrations.

[4] = target: T2, IKZF1Δ-EGFP fusion protein (Homo sapiens, UniProt Q13422+Q96SW2, DEL197-239); test: IKZF1Δ-EGFP fusion protein degradation reporter assay (flow cytometry); format: cell-based; conditions: HEK293T cells
T2 construct: expressed in transfected cells; HEK293T cells
Description: as §1, §2

BRD4BD1-EGFP = target: T3, BRD4BD1-EGFP (Homo sapiens, UniProt O60885+Q96SW2); test: BRD4BD1-EGFP/mCherry reporter cellular degradation assay (flow cytometry); format: cell-based; conditions: 5 h treatment
T3 construct: expressed in transfected cells
Description: as §1, with “Reporter cells that stably express BRD4BD1-EGFP followed by a P2A splice site separated mCherry, were treated with increasing concentrations of dBET molecules (FIG. 3A-FIG. 3F). […] IKZF1A,” for “IKZF1A,”
as §2

[5] = tested on: BRD2 and BRD3 in HEK293T cells; test: Immunoblot for cellular degradation of BRD2 and BRD3; format: cell-based, human
Description: (§3) HEK293T cells were treated with increasing concentrations of ZXH-03-26.

[6] = target: T4, endogenous BRD4 in HEK293T cells (Homo sapiens, UniProt O60885); test: Immunoblot for cellular degradation of endogenous BRD4; format: cell-based; conditions: 5 hours
T4 construct: retains activity on endogenous full length BRD4; endogenous in cells; host or cells: HEK293T
Description: as §3

[7] = 5 h incubation, cellular imaging

T1 sequence (Q96SW2 whole entry, stated change not applied): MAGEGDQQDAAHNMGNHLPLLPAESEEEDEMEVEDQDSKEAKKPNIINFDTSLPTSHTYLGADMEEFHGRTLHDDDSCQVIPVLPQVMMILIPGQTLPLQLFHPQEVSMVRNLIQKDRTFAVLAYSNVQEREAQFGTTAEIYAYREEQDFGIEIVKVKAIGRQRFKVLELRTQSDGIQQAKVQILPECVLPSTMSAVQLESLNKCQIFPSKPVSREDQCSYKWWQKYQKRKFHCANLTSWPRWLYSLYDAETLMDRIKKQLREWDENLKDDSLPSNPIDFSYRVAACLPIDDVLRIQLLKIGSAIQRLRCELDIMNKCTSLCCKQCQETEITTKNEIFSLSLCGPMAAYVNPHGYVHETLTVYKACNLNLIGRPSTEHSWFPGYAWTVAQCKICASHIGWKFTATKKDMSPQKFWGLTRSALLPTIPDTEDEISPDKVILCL
T1 sequence (Q13422 with tags, fused parts or gaps DEL197-239 limits assumed): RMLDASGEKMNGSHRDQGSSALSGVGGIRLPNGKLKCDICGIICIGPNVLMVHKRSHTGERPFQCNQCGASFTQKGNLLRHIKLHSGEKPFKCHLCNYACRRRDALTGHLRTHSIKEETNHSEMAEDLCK

`COC(=O)C[C@@H]1N=C(c2ccc(Cl)cc2)c2c(sc(C(=O)NCCCCCNc3cc(F)cc4c3CN(C3CCC(=O)NC3=O)C4=O)c2C)-n2c(C)nnc21` (stereo partly drawn) [BJG-01-174, Methyl 2-((6S)-4-(4-chlorophenyl)-2-((5-((2-(2,6-dioxopiperidin-3-yl)-6-fluoro-1-oxoisoindolin-4-yl)amino)pentyl)carbamoyl)-3,9-dimethyl-6H-thieno[3,2-f][1,2,4]triazolo[4,3-a][1,4]diazepin-6-yl)acetate] was tested, and the “bromodomain degradation activity and selectivity (in words)” value [1, 7] was “inactive degrader”.
`COC(=O)C[C@@H]1N=C(c2ccc(Cl)cc2)c2c(sc(C(=O)NCCCCCOc3cccc4c3C(=O)N(C3CCC(=O)NC3=O)C4=O)c2C)-n2c(C)nnc21` (stereo partly drawn) [BJG-02-030, Methyl 2-((6S)-4-(4-chlorophenyl)-2-((5-((2-(2,6-dioxopiperidin-3-yl)-1,3-dioxoisoindolin-4-yl)oxy)pentyl)carbamoyl)-3,9-dimethyl-6H-thieno[3,2-f][1,2,4]triazolo[4,3-a][1,4]diazepin-6-yl)acetate] was tested, and the “bromodomain degradation activity and selectivity (in words)” value [1, 7] was “maintained BRD4BD1 degradation selectivity, with reduced activity”.
For `COC(=O)C[C@@H]1N=C(c2ccc(Cl)cc2)c2c(sc(C(=O)NCCCCCNc3ccc(F)c4c3C(=O)N(C3CCC(=O)NC3=O)C4=O)c2C)-n2c(C)nnc21` (stereo partly drawn) [BJG-02-119, Methyl 2-((6S)-4-(4-chlorophenyl)-2-((5-((2-(2,6-dioxopiperidin-3-yl)-7-fluoro-1,3-dioxoisoindolin-4-yl)amino)pentyl)carbamoyl)-3,9-dimethyl-6H-thieno[3,2f][1,2,4]triazolo[4,3-a][1,4]diazepin-6-yl)acetate], the “bromodomain degradation activity and selectivity (in words)” value [1, 7] was “maintaining selectivity, with reduced activity as compared to ZXH-3-26”.
In the case of `Cc1ncsc1-c1ccc(CNC(=O)[C@@H]2C[C@@H](O)CN2C(=O)[C@@H](NC(=O)COCCOCCOCCNC(=O)C[C@@H]2N=C(c3ccc(Cl)cc3)c3c(sc(C)c3C)-n3c(C)nnc32)C(C)(C)C)cc1` [MZ1, reference compound], the “selectivity of degradation across BET bromodomains (in words)” value [2] was “activity on most bromodomains”.
`Cc1sc2c(c1C)C(c1ccc(Cl)cc1)=N[C@@H](CC(=O)NCCOc1cccc3c1C(=O)N(C1CCC(=O)NC1=O)C3=O)c1nnc(C)n1-2` (stereo partly shown) [ZXH-2-42] was tested, and the “bromodomain degradation activity and selectivity (in words)” value [1, 7] was “significantly reduced activity” and the “induction of IKZF1-CRBN complex formation / IKZF1 binding (in words)” value [3] was “greatly reduced compared to their nitrogen analogs”.
For `COC(=O)C[C@@H]1N=C(c2ccc(Cl)cc2)c2c(sc(C(=O)NCCCCCCCCOc3cccc4c3C(=O)N(C3CCC(=O)NC3=O)C4=O)c2C)-n2c(C)nnc21` (stereo partly shown) [ZXH-2-43], the “degradation of BRD2/3/4 at low concentration (in words)” value ([1]; 2.6 nM concentration, 5 h) was “significant degradation of BRD2/3/4”, the “bromodomain degradation activity and selectivity (in words)” value [1, 7] was “potent degradation of bromodomains” and the “induction of IKZF1-CRBN complex formation / IKZF1 binding (in words)” value [3] was “greatly reduced compared to their nitrogen analogs; also recorded: reduced IKZF1 binding”. For the same compound, the “cellular IKZF1 degradation (in words)” value [4] was “reduced IKZF1 binding and IKZF1 degradation”.
With `COC(=O)C[C@@H]1N=C(c2ccc(Cl)cc2)c2c(sc(C(=O)NCCCCCCCCOc3ccc4c(c3)C(=O)N(C3CCC(=O)NC3=O)C4=O)c2C)-n2c(C)nnc21` (stereo partly shown) [ZXH-2-45] the “bromodomain degradation activity and selectivity (in words)” value [1, 7] was “potent degradation of bromodomains”, the “induction of IKZF1-CRBN complex formation / IKZF1 binding (in words)” value [3] was “greatly reduced compared to their nitrogen analogs; also recorded: reduced IKZF1 binding” and the “cellular IKZF1 degradation (in words)” value [4] was “reduced IKZF1 binding and IKZF1 degradation”.
In the case of `COC(=O)C[C@@H]1N=C(c2ccc(Cl)cc2)c2c(sc(C(=O)NCCCNc3cccc4c3C(=O)N(C3CCC(=O)NC3=O)C4=O)c2C)-n2c(C)nnc21` (stereo partly shown) [ZXH-2-147], the “selectivity of degradation across BET bromodomains (in words)” value [2] was “selectively targets BRD4 for degradation and spares BRD2 and BRD3; also recorded: selective degradation of BRD4” and the “degradation of BRD4BD1 (in words)” value (BRD4BD1-EGFP) was “active on BRD4BD1”.
For `COC(=O)C[C@@H]1N=C(c2ccc(Cl)cc2)c2c(sc(C(=O)NCCCCNc3cccc4c3C(=O)N(C3CCC(=O)NC3=O)C4=O)c2C)-n2c(C)nnc21` (stereo partly shown) [ZXH-2-184], the “selectivity of degradation across BET bromodomains (in words)” value [2] was “selectively targets BRD4 for degradation and spares BRD2 and BRD3; also recorded: selective degradation of BRD4”.
In the case of `COC(=O)C[C@@H]1N=C(c2ccc(Cl)cc2)c2c(sc(C(=O)NCCCCCNc3cccc4c3C(=O)N(C3CCC(=O)NC3=O)C4=O)c2C)-n2c(C)nnc21` (stereo partly shown) [ZXH-03-26], the “degradation of BRD2 and BRD3 (in words)” value [5] was “inactive on BRD2 and BRD3”, the “concentrations at which degradation of BRD2 or 3 is spared” value [2] was over 10 µM and the “selectivity of degradation across BET bromodomains (in words)” value [2] was “activity exclusively on the first bromodomain of BRD4; also recorded: selectively targets BRD4 for degradation and spares BRD2 and BRD3”. For the same compound, the “degradation of BRD4BD1 (in words)” value (BRD4BD1-EGFP) was “active on BRD4BD1”, the DC50 (BRD4BD1-EGFP; GFP/mCherry ratio, read-out: DC50/5h (half-maximal degradation after 5 hours of treatment), BRD4BD1) was about 5 nM and the “degradation of endogenous BRD4 (in words)” value [6] was “degrades endogenous BRD4 with comparable efficacy compared to the best pan-BET degrader dBET6”.
For `COC(=O)C[C@@H]1N=C(c2ccc(Cl)cc2)c2c(sc(C(=O)NCCNc3cccc4c3C(=O)N(C3CCC(=O)NC3=O)C4=O)c2C)-n2c(C)nnc21` (stereo partly shown) [ZXH-3-27], the “selectivity of degradation across BET bromodomains (in words)” value [2] was “lack of selective degradation of BRD4”.
In the case of `COC(=O)C[C@@H]1N=C(c2ccc(Cl)cc2)c2c(sc(C(=O)NCCNc3ccc4c(c3)C(=O)N(C3CCC(=O)NC3=O)C4=O)c2C)-n2c(C)nnc21` (stereo partly shown) [ZXH-3-28], the “bromodomain degradation activity and selectivity (in words)” value [1, 7] was “inactive molecule”.
`COC(=O)C[C@@H]1N=C(c2ccc(Cl)cc2)c2c(sc(C(=O)NCCCc3cccc4c3C(=O)N(C3CCC(=O)NC3=O)C4=O)c2C)-n2c(C)nnc21` (stereo partly shown) [ZXH-3-52] was tested, and the “BRD3/BRD4 selective degradation observed” value [1, 7] was “BRD3/BRD4 selective degraders”.
With `COC(=O)C[C@@H]1N=C(c2ccc(Cl)cc2)c2c(sc(C(=O)NCCCCCCc3cccc4c3C(=O)N(C3CCC(=O)NC3=O)C4=O)c2C)-n2c(C)nnc21` (stereo partly shown) [ZXH-3-82] the “selectivity of degradation across BET bromodomains (in words)” value [2] was “selectively targets BRD4 for degradation and spares BRD2 and BRD3”.
For `COC(=O)C[C@@H]1N=C(c2ccc(Cl)cc2)c2c(sc(C(=O)NCCCCCCCCNc3ccc4c(c3)C(=O)N(C3CCC(=O)NC3=O)C4=O)c2C)-n2c(C)nnc21` (stereo partly shown) [dBET72, reference compound], the “induction of IKZF1-CRBN complex formation / IKZF1 binding (in words)” value [3] was “pronounced complex formation” and the “cellular IKZF1 degradation (in words)” value [4] was “equipotent to lenalidomide”.
